# In ChEMBL document CHEMBL1932923, “Structure-activity relationships for naturally occurring coumarins as β-secretase inhibitor” (Bioorg Med Chem, 2012):
# Active and inactive are the calls of the source. The rule behind the calls is not given here. Non-standard residues stand in square brackets, D forms with d. Residues, ends and D or L forms follow the SMILES beside them. Sta = CC(C)C[C@H](N)[C@@H](O)CC(=O)O
# Molecular target: T1, Beta-secretase 1 (Homo sapiens, UniProt P56817)
# Assay: Inhibition of recombinant human BACE1 assessed as dissociation constant of enzyme-inhibitor complex using Rh-EVNLDAEFK as substrate by Dixon and Cornish-Bowden plots analysis
# T1 sequence (P56817 whole entry): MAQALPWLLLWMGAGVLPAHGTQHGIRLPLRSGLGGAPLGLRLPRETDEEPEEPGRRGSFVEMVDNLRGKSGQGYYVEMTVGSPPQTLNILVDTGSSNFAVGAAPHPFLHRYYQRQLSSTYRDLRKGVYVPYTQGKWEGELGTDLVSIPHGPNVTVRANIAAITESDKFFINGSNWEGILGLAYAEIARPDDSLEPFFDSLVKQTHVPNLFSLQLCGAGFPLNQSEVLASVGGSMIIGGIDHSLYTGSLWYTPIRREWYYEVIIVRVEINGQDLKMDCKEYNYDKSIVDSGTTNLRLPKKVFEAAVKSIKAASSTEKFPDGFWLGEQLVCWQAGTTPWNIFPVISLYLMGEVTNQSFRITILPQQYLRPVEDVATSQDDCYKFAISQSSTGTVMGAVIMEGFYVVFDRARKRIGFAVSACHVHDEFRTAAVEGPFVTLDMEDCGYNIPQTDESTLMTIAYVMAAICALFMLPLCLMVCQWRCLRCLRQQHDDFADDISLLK
row,Ki [µM],SMILES
1,103,COc1c2occc2c(OC/C=C(\C)CCC=C(C)C)c2ccc(=O)oc12
2,61.6,CC(C)=CCC/C(C)=C/COc1c2occc2cc2ccc(=O)oc12
3,34.8,CC(C)=CCC/C(C)=C/COc1c2ccoc2cc2oc(=O)ccc12 [BERGAMOTTIN]

# Molecular target: T1, Beta-secretase 1
# Assay: Non-competitive inhibition of recombinant human BACE1 using Rh-EVNLDAEFK as substrate by Dixon and Cornish-Bowden plots analysis
row,inhibition,SMILES
1,Active,CC(C)=CCC/C(C)=C/COc1c2occc2cc2ccc(=O)oc12

# Molecular target: T1, Beta-secretase 1
# Assay: Mixed type inhibition of recombinant human BACE1 using Rh-EVNLDAEFK as substrate by Dixon and Cornish-Bowden plots analysis
row,inhibition,SMILES
1,Active,COc1c2occc2c(OC/C=C(\C)CCC=C(C)C)c2ccc(=O)oc12
2,Active,CC(C)=CCC/C(C)=C/COc1c2ccoc2cc2oc(=O)ccc12 [BERGAMOTTIN]

# Molecular target: T1, Beta-secretase 1
# Assay: Inhibition of recombinant human BACE1 assessed as dissociation constant of enzyme-substrate-inhibitor complex using Rh-EVNLDAEFK as substrate by Dixon and Cornish-Bowden plots analysis
row,Ki [µM],SMILES
1,13.7,COc1c2occc2c(OC/C=C(\C)CCC=C(C)C)c2ccc(=O)oc12
2,61.9,CC(C)=CCC/C(C)=C/COc1c2occc2cc2ccc(=O)oc12
3,0.7,CC(C)=CCC/C(C)=C/COc1c2ccoc2cc2oc(=O)ccc12 [BERGAMOTTIN]

# Molecular target: T1, Beta-secretase 1
# Assay: Inhibition of recombinant human BACE1 using Rh-EVNLDAEFK as substrate after 60 mins by fluorescence quenching assay
row,SMILES,IC50 [µM]
1,CC(C)=CCC/C(C)=C/COc1ccc2ccc(=O)oc2c1 [AURAPTENE],345
2,CC1(C)Oc2cc3oc(=O)ccc3cc2C[C@@H]1O [DECURSINOL],> 500
3,COc1cc2oc(=O)ccc2cc1CC=C(C)C [SUBEROSIN],> 500
4,COc1ccc2ccc(=O)oc2c1 [HERNIARIN],> 500
5,CC(C)=CC(=O)O[C@H]1Cc2cc3ccc(=O)oc3cc2OC1(C)C [DECURSIN],> 500
6,CC1(C)Oc2ccc3ccc(=O)oc3c2CC1O (centres undefined) [LOMATIN],> 500
7,CC(C)=CCc1cc2ccc(=O)oc2cc1O [DEMETHYLSUBEROSIN],413
8,CC[C@H](C)[C@H](NC(=O)[C@H](CCC(=O)O)NC(=O)[C@H](CCC(=O)O)NC(=O)[C@@H](NC(=O)[C@@H](N)CCCCN)[C@@H](C)O)C(=O)N[C@@H](CO)C(=O)N[C@@H](CCC(=O)O)C(=O)N[C@H](C(=O)N[C@@H](CC(N)=O)C(=O)N[C@@H](CC(C)C)[C@@H](O)CC(=O)N[C@H](C(=O)N[C@@H](C)C(=O)N[C@@H](CCC(=O)O)C(=O)N[C@@H](Cc1ccccc1)C(=O)O)C(C)C)C(C)C (H-KTEEISEVN[Sta]VAEF-OH),0.2
9,COc1c2ccoc2cc2oc(=O)ccc12 [BERGAPTEN],> 500
10,O=c1ccc2ccccc2o1 [COUMARIN],> 500
11,CC(C)(O)[C@@H]1Cc2c(ccc3ccc(=O)oc23)O1 [COLUMBIANETIN],> 500
12,CC1(C)C=Cc2c(ccc3ccc(=O)oc23)O1 [SESALIN],> 500
13,CC1(C)O[C@@H]1COc1c2occc2cc2ccc(=O)oc12 [HERACLENIN],444
14,COc1ccc2ccc(=O)oc2c1CC=C(C)C [OSTHOLE],> 500
15,CC(C)=CCc1c(O)ccc2ccc(=O)oc12 [OSTHENOL],> 500
16,CC(C)(O)[C@@H]1Cc2cc3ccc(=O)oc3cc2O1 [MARMESIN],> 500
17,CC1(C)C=Cc2cc3ccc(=O)oc3cc2O1 [XANTHYLETIN],> 500
18,O=c1ccc2ccc(O)cc2o1 [UMBELLIFERONE],> 500
19,O=c1ccc2c(O)c3ccoc3cc2o1 [BERGAPTOL],> 500
20,CC(C)=CCOc1ccc2ccc(=O)oc2c1 [7-PRENYLOXYCOUMARIN],> 500
21,O=c1ccc2cc3ccoc3c(O)c2o1 [XANTHOTOXOL],> 500
22,C/C=C(\C)C(=O)O[C@H]1Cc2cc3ccc(=O)oc3cc2OC1(C)C [DECURSINOL TIGLATE],> 500
23,COc1cc2ccc(=O)oc2cc1OC [SCOPARONE],> 500
24,O=c1ccc2ccc3occc3c2o1 [ANGELICIN],> 500
25,CC(C)=CCOc1c2occc2cc2ccc(=O)oc12 [PENTOSALEN],91.8
26,CC(C)=CCC/C(C)=C/COc1c2occc2cc2ccc(=O)oc12,20.4
27,COc1c2ccoc2c(O)c2oc(=O)ccc12,> 500
28,CC(C)=CCC/C(C)=C/COc1c2ccoc2cc2oc(=O)ccc12 [BERGAMOTTIN],32.2
29,CC1(C)CCc2cc3ccc(=O)oc3cc2O1 [DIHYDROXANTHYLETIN],> 500

# Next, values leading:
row,IC50 [µM],SMILES
1,> 500,COc1c2occc2cc2ccc(=O)oc12 [METHOXSALEN]
2,9.9,COc1c2occc2c(OC/C=C(\C)CCC=C(C)C)c2ccc(=O)oc12
3,> 500,COc1c2ccoc2c(OC)c2oc(=O)ccc12 [ISOPIMPINELLIN]
4,> 500,O=c1ccc2cc3ccoc3cc2o1 [PSORALEN]
5,220,COc1c2ccoc2c(OC[C@@H](O)C(C)(C)O)c2oc(=O)ccc12 [BYAKANGELICIN]
6,143,COc1c2ccoc2c(OCC=C(C)C)c2oc(=O)ccc12 [PHELLOPTERIN]
7,> 500,O=c1ccc2c(O)c3ccoc3c(O)c2o1
8,105,COc1c2ccoc2c(OC[C@H]2OC2(C)C)c2oc(=O)ccc12 [BYAKANGELICOL]
9,> 500,CC(C)(O)[C@H](O)COc1c2ccoc2cc2oc(=O)ccc12 [OXYPEUCEDANIN HYDRATE]
10,> 500,CC(C)(O)[C@H](O)COc1c2occc2cc2ccc(=O)oc12 [HERACLENOL]
11,> 500,CC(C)=CCC/C(C)=C/COc1c2ccoc2c(O)c2oc(=O)ccc12
12,359,CC1(C)O[C@H]1COc1c2ccoc2cc2oc(=O)ccc12 [OXYPEUCEDANIN]
13,344,COc1c2occc2c(OCC=C(C)C)c2ccc(=O)oc12 [KINIDILIN]
14,> 500,CC(C)=CCOc1c2ccoc2c(O)c2oc(=O)ccc12
15,> 500,CC(C)=CCOc1c2ccoc2c(OCC=C(C)C)c2oc(=O)ccc12
16,11.1,COc1c2ccoc2c(OC/C=C(\C)CCC=C(C)C)c2oc(=O)ccc12
